In one assay the target is HIS-TGF-βR2 WT (Homo sapiens (Human), UniProt P37173). Nature of the assay: HTRF probe displacement assay with HIS-TGF-βR2 WT. For orientation: In TR-FRET formats the signal depends on donor and acceptor labels being close together.
In a further assay the target is HIS-TGF-βR1 T204D (Homo sapiens (Human), UniProt P36897, T204D). The assay can be described thus: HTRF probe displacement assay with HIS-TGF-βR1 T204D.
Setting [1] is: read-out: TGFBr2 IC50, HTRF probe displacement, 1 nM HIS-TGF-βR2 WT, 1 hour at room temperature.
Setting [2] is: read-out: TGFbr1 IC50, HTRF probe displacement, 1 nM HIS-TGF-βR1 T204D, 1 hour at room temperature.

This passage reports IC50 results from patent US9884868B2, “TGF-beta inhibitors” (Rigel Pharmaceuticals, Inc., priority 2015, dated 2018).

SMILES strings stand for the structures. Read-outs that look alike come from different tables or passages of the source.

Sequence of HIS-TGF-βR1 T204D (P36897 34-503 T204D): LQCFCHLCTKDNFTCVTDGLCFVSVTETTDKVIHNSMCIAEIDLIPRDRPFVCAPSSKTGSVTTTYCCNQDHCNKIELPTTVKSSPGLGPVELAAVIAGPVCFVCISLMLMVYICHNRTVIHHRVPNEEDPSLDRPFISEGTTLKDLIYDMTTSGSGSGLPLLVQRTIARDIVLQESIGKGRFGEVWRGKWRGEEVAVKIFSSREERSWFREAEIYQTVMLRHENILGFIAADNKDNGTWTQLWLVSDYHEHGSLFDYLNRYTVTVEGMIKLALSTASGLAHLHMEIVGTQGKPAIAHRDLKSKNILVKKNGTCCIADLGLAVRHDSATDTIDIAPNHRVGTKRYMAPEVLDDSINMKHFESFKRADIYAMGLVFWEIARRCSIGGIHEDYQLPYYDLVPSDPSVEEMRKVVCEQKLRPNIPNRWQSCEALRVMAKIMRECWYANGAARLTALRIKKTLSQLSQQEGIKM
Sequence of HIS-TGF-βR2 WT (P37173 23-567): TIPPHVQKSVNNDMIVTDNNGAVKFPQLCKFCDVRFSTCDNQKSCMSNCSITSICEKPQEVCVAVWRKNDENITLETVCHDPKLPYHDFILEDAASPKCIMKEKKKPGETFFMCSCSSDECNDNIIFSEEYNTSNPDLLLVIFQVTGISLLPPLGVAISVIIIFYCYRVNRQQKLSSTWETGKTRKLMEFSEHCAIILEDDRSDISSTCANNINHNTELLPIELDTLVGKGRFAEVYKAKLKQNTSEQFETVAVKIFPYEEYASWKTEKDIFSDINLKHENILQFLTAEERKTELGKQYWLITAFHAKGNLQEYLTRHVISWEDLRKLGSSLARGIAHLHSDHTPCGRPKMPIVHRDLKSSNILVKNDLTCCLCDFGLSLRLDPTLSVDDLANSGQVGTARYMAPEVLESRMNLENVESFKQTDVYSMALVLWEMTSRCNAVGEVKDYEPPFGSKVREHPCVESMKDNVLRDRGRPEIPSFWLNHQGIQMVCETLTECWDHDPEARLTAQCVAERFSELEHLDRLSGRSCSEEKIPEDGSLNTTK

A word on the IC50: it is the concentration at which inhibition is half-maximal. Regarding `COC(=O)N1CC(n2cnc(-c3ccc(F)cc3)c2-c2ccc3ncc(C#N)n3n2)C1` [Example 190′, methyl 3-(5-(3-cyanoimidazo[1,2-b]pyridazin-6-yl)-4-(4-fluorophenyl)-1H-imidazol-1-yl)azetidine-1-carboxylate], the IC50 at HIS-TGF-βR2 WT (setting [1]) was more than 15 µM; on HIS-TGF-βR1 T204D (setting [2]), 52.7 nM.
For `NC(=O)c1cnc2ccc(-c3c(-c4ccc(F)cc4)ncn3C3CCC(F)(F)CC3)nn12` [110′, 6-(1-(4,4-difluorocyclohexyl)-4-(4-fluorophenyl)-1H-imidazol-5-yl)imidazo[1,2-b]pyridazine-3-carboxamide], in that order: more than 15 µM and 20.5 nM.
The matching figures for `Fc1ccc(-c2ncn(CC(F)F)c2-c2ccc3ncc(CNCC(F)F)n3c2)cc1` [Example 275′, N-((6-(1-(2,2-difluoroethyl)-4-(4-fluorophenyl)-1H-imidazol-5-yl)imidazo[1,2-a]pyridin-3-yl)methyl)-2,2-difluoroethanamine]: more than 15 µM and 121 nM.
The matching figures for `NC(=O)c1cnc2ccc(-c3c(-c4ccc(F)c(Cl)c4)ncn3C(CO)CO)cn12` [122′, 6-(4-(3-chloro-4-fluorophenyl)-1-(1,3-dihydroxypropan-2-yl)-1H-imidazol-5-yl)imidazo[1,2-a]pyridine-3-carboxamide]: more than 15 µM and 1.8 nM.
Turning to `N#Cc1cnc2ccc(-c3c(-c4ccc(F)cc4)ncn3C3CCCCC3O)nn12` (stereo not shown) [17′, 6-(4-(4-fluorophenyl)-1-(2-hydroxycyclohexyl)-1H-imidazol-5-yl)imidazo[1,2-b]pyridazine-3-carbonitrile], the figures for the IC50 at HIS-TGF-βR2 WT (setting [1]) and on HIS-TGF-βR1 T204D (setting [2]) were more than 15 µM and 3.5 nM, respectively.
In the case of `NC(=O)c1cnc2ccc(-c3c(-c4ccc(F)c(Cl)c4)ncn3C3CC(F)(F)C3)cn12` [121′, 6-(4-(3-chloro-4-fluorophenyl)-1-(3,3-difluorocyclobutyl)-1H-imidazol-5-yl)imidazo[1,2-a]pyridine-3-carboxamide], the half-maximal inhibitory concentration (IC50) on HIS-TGF-βR2 WT (setting [1]) is more than 15 µM; on HIS-TGF-βR1 T204D (setting [2]), 1.1 nM.
As to `CC(=O)Nc1cccc(-c2ncn(CC(F)F)c2-c2ccc3ncc(C#N)n3n2)c1` [245′, N-(3-(5-(3-cyanoimidazo[1,2-b]pyridazin-6-yl)-1-(2,2-difluoroethyl)-1H-imidazol-4-yl)phenyl)acetamide], the concentration for half-maximal inhibition (IC50) on HIS-TGF-βR2 WT (setting [1]) was more than 15 µM; at HIS-TGF-βR1 T204D (setting [2]), 49.1 nM.
For `NC(=O)c1cnc2ccc(-c3c(-c4cc(Cl)c(F)cc4F)ncn3CC(F)F)cn12` [235′, 6-(4-(5-chloro-2,4-difluorophenyl)-1-(2,2-difluoroethyl)-1H-imidazol-5-yl)imidazo[1,2-a]pyridine-3-carboxamide], in that order: more than 15 µM and 1 nM.
In the case of `N#Cc1cnc2ccc(-c3c(-c4ccc(F)c(Cl)c4)ncn3CC(O)C(F)(F)F)nn12` (stereo not shown) [55′, 6-(4-(3-chloro-4-fluorophenyl)-1-(3,3,3-trifluoro-2-hydroxypropyl)-1H-imidazol-5-yl)imidazo[1,2-b]pyridazine-3-carbonitrile], the IC50 on HIS-TGF-βR2 WT was more than 15 µM; at HIS-TGF-βR1 T204D it was 6.7 nM.
On to `CC(C)(C)NC(=O)N1CC(n2cnc(-c3ccc(F)cc3)c2-c2ccc3ncc(C#N)n3n2)C1` [Example 193′, N-(tert-butyl)-3-(5-(3-cyanoimidazo[1,2-b]pyridazin-6-yl)-4-(4-fluorophenyl)-1H-imidazol-1-yl)azetidine-1-carboxamide], for which the IC50 on HIS-TGF-βR2 WT (setting [1]) is more than 15 µM; on HIS-TGF-βR1 T204D (setting [2]) it was 227 nM.
For `COC(=O)NCc1cnc2ccc(-c3c(-c4ccc(F)cc4)ncn3CC(F)F)nn12` [Example 200′, methyl ((6-(1-(2,2-difluoroethyl)-4-(4-fluorophenyl)-1H-imidazol-5-yl)imidazo[1,2-b]pyridazin-3-yl)methyl)carbamate], in that order: more than 15 µM and 12 nM.
For the compound `CS(=O)(=O)Nc1cccc(-c2ncn(CC(F)F)c2-c2ccc3ncc(C#N)n3n2)c1` [252′, N-(3-(5-(3-cyanoimidazo[1,2-b]pyridazin-6-yl)-1-(2,2-difluoroethyl)-1H-imidazol-4-yl)phenyl)methanesulfonamide], the values for the IC50 at HIS-TGF-βR2 WT (setting [1]) and at HIS-TGF-βR1 T204D (setting [2]) were more than 15 µM and 7.7 nM, respectively.
For `CC(C)Oc1ccc(-c2ncn(CC(F)F)c2-c2ccc3ncc(C#N)n3n2)cc1` [263′, 6-(1-(2,2-difluoroethyl)-4-(4-isopropoxyphenyl)-1H-imidazol-5-yl)imidazo[1,2-b]pyridazine-3-carbonitrile], in that order: more than 15 µM and 171 nM.
Turning to `O=C(NCc1cnc2ccc(-c3c(-c4ccc(F)cc4)ncn3CC(F)F)nn12)C1CC1` [Example 198′, N-((6-(1-(2,2-difluoroethyl)-4-(4-fluorophenyl)-1H-imidazol-5-yl)imidazo[1,2-b]pyridazin-3-yl)methyl)cyclopropanecarboxamide], the IC50 on HIS-TGF-βR2 WT (setting [1]) was more than 15 µM; at HIS-TGF-βR1 T204D (setting [2]), 5.3 nM.
The matching figures for `NC(=O)c1cnc2ccc(-c3c(-c4ccc(F)cc4)ncn3CC(O)C(F)(F)F)cn12` (stereo not shown) [169′, 6-(4-(4-fluorophenyl)-1-(3,3,3-trifluoro-2-hydroxypropyl)-1H-imidazol-5-yl)imidazo[1,2-a]pyridine-3-carboxamide]: more than 15 µM and 21.3 nM.
For `NC(=O)CNC(=O)c1cnc2ccc(-c3c(-c4ccc(F)cc4)ncn3CC(F)F)cn12` [280′], in that order: more than 15 µM and 3.2 nM.
The matching figures for `NC(=O)c1cnc2ccc(-c3c(-c4ccc(F)c(Cl)c4)ncn3C3CCOCC3)nn12` [144′, 6-(4-(3-chloro-4-fluorophenyl)-1-(tetrahydro-2H-pyran-4-yl)-1H-imidazol-5-yl)imidazo[1,2-b]pyridazine-3-carboxamide]: more than 15 µM and 4.1 nM.
Turning to `NC(=O)c1cnc2ccc(-c3c(-c4ccc(F)c(Cl)c4)ncn3CCN3CCCC3)nn12` [143′, 6-(4-(3-chloro-4-fluorophenyl)-1-(2-(pyrrolidin-1-yl)ethyl)-1H-imidazol-5-yl)imidazo[1,2-b]pyridazine-3-carboxamide], the IC50 was more than 15 µM on HIS-TGF-βR2 WT (setting [1]) and 9.1 nM at HIS-TGF-βR1 T204D (setting [2]).
As to `CN(C)C(=O)c1cnc2ccc(-c3c(-c4ccc(F)cc4)ncn3CC(F)F)nn12` [207′, 6-(1-(2,2-difluoroethyl)-4-(4-fluorophenyl)-1H-imidazol-5-yl)-N,N-dimethylimidazo[1,2-b]pyridazine-3-carboxamide], the IC50 was more than 15 µM at HIS-TGF-βR2 WT (setting [1]) and 3 nM on HIS-TGF-βR1 T204D (setting [2]).
The matching figures for `CC(C)(C)NC(=O)NCc1cnc2ccc(-c3c(-c4ccc(F)cc4)ncn3CC(F)F)nn12` [Example 199′, 1-(tert-butyl)-3-((6-(1-(2,2-difluoroethyl)-4-(4-fluorophenyl)-1H-imidazol-5-yl)imidazo[1,2-b]pyridazin-3-yl)methyl)urea]: more than 15 µM and 9.5 nM.
For `CC(=O)N1CC(n2cnc(-c3ccc(F)cc3)c2-c2ccc3ncc(C#N)n3n2)C1` [Example 191′, 6-(1-(1-acetylazetidin-3-yl)-4-(4-fluorophenyl)-1H-imidazol-5-yl)imidazo[1,2-b]pyridazine-3-carbonitrile], in that order: more than 15 µM and 72.7 nM.
As for `OC(c1cnc2ccc(-c3c(-c4ccc(F)cc4)ncn3CC(F)F)nn12)C(F)(F)F` (stereo not shown) [Example 213′, 1-(6-(1-(2,2-difluoroethyl)-4-(4-fluorophenyl)-1H-imidazol-5-yl)imidazo[1,2-b]pyridazin-3-yl)-2,2,2-trifluoroethanol], the results for the IC50 on HIS-TGF-βR2 WT (setting [1]) and at HIS-TGF-βR1 T204D (setting [2]) were more than 15 µM and 2.3 nM, respectively.
`COC(=O)N1CCn2c(nc(-c3ccc(F)cc3)c2-c2ccc3ncc(C(N)=O)n3c2)C1` [Example 291′, methyl 3-(3-carbamoylimidazo[1,2-a]pyridin-6-yl)-2-(4-fluorophenyl)-5,6-dihydroimidazo[1,2-a]pyrazine-7(8H)-carboxylate]: the concentration for half-maximal inhibition (IC50) at HIS-TGF-βR2 WT (setting [1]) was more than 15 µM; at HIS-TGF-βR1 T204D (setting [2]), 30.5 nM.
For the compound `CC(=O)Nc1nc(-c2ccc(F)cc2)c(-c2ccc3ncc(C#N)n3c2)n1CC(F)F` [297′], the values for the IC50 at HIS-TGF-βR2 WT (setting [1]) and on HIS-TGF-βR1 T204D (setting [2]) were more than 15 µM and 542 nM, respectively.
For `CN(C)CCCn1cnc(-c2ccc(F)cc2)c1-c1ccc2ncc(C(N)=O)n2c1` [163′, 6-(1-(3-(dimethylamino)propyl)-4-(4-fluorophenyl)-1H-imidazol-5-yl)imidazo[1,2-a]pyridine-3-carboxamide], the IC50 on HIS-TGF-βR2 WT (setting [1]) is more than 15 µM; at HIS-TGF-βR1 T204D (setting [2]), 31.9 nM.
For `O=C(NC1CC1)c1cnc2ccc(-c3c(-c4ccc(F)cc4)ncn3CC(F)F)cn12` [Example 279′, N-cyclopropyl-6-(1-(2,2-difluoroethyl)-4-(4-fluorophenyl)-1H-imidazol-5-yl)imidazo[1,2-a]pyridine-3-carboxamide], in that order: more than 15 µM and 9.5 nM.
`NC(=O)c1cnc2ccc(-c3c(-c4ccc(F)c(Cl)c4)ncn3C3CC(F)(F)C3)nn12` [118′, 6-(4-(3-chloro-4-fluorophenyl)-1-(3,3-difluorocyclobutyl)-1H-imidazol-5-yl)imidazo[1,2-b]pyridazine-3-carboxamide]: the 50% inhibitory concentration (IC50) at HIS-TGF-βR2 WT (setting [1]) was more than 15 µM; at HIS-TGF-βR1 T204D (setting [2]), 1.4 nM.
With `N#Cc1cnc2ccc(-c3c(-c4ccc(F)cc4)ncn3CC(O)C(F)(F)F)cn12` (stereo not shown) [93′, 6-(4-(4-fluorophenyl)-1-(3,3,3-trifluoro-2-hydroxypropyl)-1H-imidazol-5-yl)imidazo[1,2-a]pyridine-3-carbonitrile], the concentration for half-maximal inhibition (IC50) is more than 15 µM on HIS-TGF-βR2 WT and 576 nM at HIS-TGF-βR1 T204D.
Regarding `COCC(C1CC1)n1cnc(-c2ccc(F)cc2)c1-c1ccc2ncc(C#N)n2n1` (stereo not shown) [16′, 6-(1-(1-cyclopropyl-2-methoxyethyl)-4-(4-fluorophenyl)-1H-imidazol-5-yl)imidazo[1,2-b]pyridazine-3-carbonitrile], the IC50 was more than 15 µM on HIS-TGF-βR2 WT and 2.3 nM on HIS-TGF-βR1 T204D.
